Marks after values point to notes of the source that are not given here.
Experiments:
[1] = tested on: Guinea-pigs sensitized to ovalbumin; test: Guinea pig model of asthma, airway hyper-reactivity 24 h after OVA challenge; type: in vivo; conditions: for Cdyn, % increase from that of the positive control / RL, % decrease from that of the positive control: Dexamethasone 15 mg/kg, glycan compounds 10 mg/kg, intratracheal microspray
Experimental: A guinea pig model of asthma was used. Guinea-pigs (8 per group) were sensitized to ovalbumin by two intraperitoneal injections of ovalbumin (grade V, 20 μg) in aluminium hydroxide gel on Days 1 and 11. On day 20 (24 hours prior to assessing airway hyper-reactivity (AHR)) each animal received a challenge dose of OVA—this took the form of a 1 hour aerosol exposure of OVA (10 μg). The negative control animals received, no sensitization and no challenge. The positive controls were sensitized and challenged but were either given no further treatment or were treated with vehicle (saline). Test compounds (PPS and the sulfated xylan pentasaccharide) and vehicle were administered by intratracheal administration as an aqueous microspray using a Penn Century device. The device used was the FMJ250 high pressure syringe and a 1A-1C microspray delivery tube. The particle size delivery goes up to 32 μm. During the study the volume delivered was 100 ul for all test formulations. The test compounds were administered 30 min before challenge with OVA. The animals underwent surgery 24 hours after challenge to insert a cannula into the trachea, the cannula was connected to the instrumentation which measured pressure and changes in airflow. After surgery the animals were allowed to stabilize for 10 min before baseline readings were taken. Bronchoconstriction was evoked with aerosolized methacholine (10 mg/ml and 30 mg/ml) for 20 seconds. The difference between baseline readings and that obtained after methacholine were used to calculate Cdyn and RL. Thus, measurements of lung function were taken approximately 25 hours after the drug was administered. Both pentosan polysulfate and the sulfated xylan pentasaccharide when administered at 10 mg/kg were effective in reducing the airway hyper-reactivity readings. Their efficacy was approximately equivalent to that usually seen with 7.5 mg/kg of dexamethasone in this model.

[2] = tested on: male C57Bl/6J mice exposed to cigarette smoke; test: Mouse model of emphysema/COPD, acute cigarette smoke exposure; type: in vivo; conditions: PPS inhaled 30 minutes before
Experimental: (§1) A mouse model of emphysema was used. Acute and chronic exposure of mice to cigarette smoke lead to lung responses that in part mimic the inflammatory and structural changes observed in COPD. In this model male C57Bl/6J mice are subjected to acute and chronic smoke exposure, with normal room air being the control situation. In the acute study mice were exposed to either room air or to the smoke of five cigarettes (approximately 12 mg of tar and 0.9 mg of nicotine) for 20 minutes. In the chronic study mice were exposed to either room air or to the smoke of three cigarettes/day for 5 days/week for 6 months. The 4 groups of mice were then further divided so that mice within each group also received PPS via an inhaled route.
In the acute exposure groups of mice pentosan polysulfate was given 30 minutes before exposure to cigarette smoke. Assessment of the efficacy of the drug for mice in the acute exposure groups involved assessment of trolox equivalent anti-oxidant capacity of the bronchoalveolar lavage fluid (BALF) at the end of smoke exposure. The BALF was examined for cytokines and chemokines that are associated with an inflammatory response. The levels of these agents were determined at 4 hours after exposure and at 24 hours after cigarette smoke exposure. A range of cytokines and chemokines was measured. […] A differential cell count of the cells in the BALF was also determined.

[3] = tested on: male C57Bl/6J mice exposed to cigarette smoke; test: Mouse model of emphysema/COPD, chronic cigarette smoke exposure; type: in vivo; conditions: chronic smoke exposure 6 months, PPS once a day
Experimental: as §1
The animals in the chronic study received PPS once a day for the duration of the experiment. At the completion of the experiment animals were killed and the lungs fixed intratracheally with formalin (5%) and lung volume was measured by water displacement. The lung tissue was prepared for histochemistry and immunohistochemistry, the lung tissues being stained for hematoxylin-eosin and/or periodic acid-Schiff or with antibodies to the macrophage marker Mac-3. The level of desmosine in the lung tissue was also determined. Desmosine is an elastin-specific imino acid; the assessment of desmosine in the lung is taken as an indicator of the lung elastin content. […]

[4] = target: T1, human MIP-1α (Homo sapiens, UniProt P10147); test: MIP-1α induced migration of DMSO treated U937 cells (chemotaxis); type: cell-based; conditions: MIP-1α 40 ng/ml
T1 sequence (P10147 24-92): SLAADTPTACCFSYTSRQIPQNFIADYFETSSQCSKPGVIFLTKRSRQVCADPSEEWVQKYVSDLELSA
Experimental: DMSO treated U937 cells were used to examine the cell migration in response to MIP-1α. U937 cells are a promonocytic human cell line originally derived from the pleural effusion of a patient with histiocytic lymphoma. These cells were treated with DMSO (1.2%) for 4 days before being used in chemotaxis experiments. The chemotaxis assays were performed in 96-well Costar chemotaxis plates and human MIP-1α (+/−inhibitor) was added to the bottom chamber and the DMSO treated U937 cells in RPMI/HEPES were added to the top chamber and the plate was incubated at 37° C. for 3 hour to allow cells to move from the top chamber into the bottom. The number of cells migrating into the bottom chamber was quantified by labeling with AQUEOUS ONE (30 μl/well) for 1 hour before absorbance at 490 nm is read. MIP-1α was used at a final concentration of 40 ng/ml and the inhibitors were the sulfated xylan pentasaccharide (10 and 50 μg/ml) and PPS (10 and 50 μg/ml). It is clear from these experiments that both PPS and the sulfated xylan pentasaccharide inhibited MIP-1α stimulated cell movement.

Inhibition of MIP-1α stimulated cell movement ([4]; 10 μg/ml): 48%
Inhibition of MIP-1α stimulated cell movement ([4]; 50 μg/ml): 69%
Substance: Pentosan polysulfate [PPS]
Reduction of airway hyper-reactivity readings (in words) ([1]; 10 mg/kg intratracheal microspray 30 min before OVA challenge): effective
Cdyn, % increase from that of the positive control ([1]; MCh 10 mg/ml): 38% *
RL, % decrease from that of the positive control ([1]; MCh 10 mg/ml): 32%
Cdyn, % increase from that of the positive control ([1]; MCh 30 mg/ml): 49% **
RL, % decrease from that of the positive control ([1]; MCh 30 mg/ml): 35% **
Cellular infiltrate into BALF [2]: decreased
Numbers of neutrophils in BALF [2]: significantly attenuated
Overall effect in chronic COPD model [3]: acting as an anti-inflammatory agent

Reference: US20180078576A1, “SULPHATED XYLANS FOR TREATMENT OR PROPHYLAXIS OF RESPIRATORY DISEASES” (Paradigm Biopharmaceuticals Limited, priority 2007, published 2018)
